Laboratory results: patent US10238670B2, “9-aminomethyl minocycline compounds and methods of use thereof in urinary tract infection (UTI) treatment” (Paratek Pharmaceuticals, Inc., priority 2016, dated 2019)
Values after ≈ are worked out from the molar mass of the structure shown. Like-named read-outs stand apart in the source and are kept apart here.

Legend:
Assay in all cases: In vitro MIC, 2010 surveillance isolates
[1] = tested on: E. faecium VS; format: cell-based; details: for Cumulative % Inhibition at MIC: N=575
[2] = tested on: MSSA; format: cell-based; details: for Cumulative % Inhibition at MIC: N=5713
[3] = tested on: K. oxytoca; format: cell-based; details: for Cumulative % Inhibition at MIC: N=377
[4] = tested on: MS CoNS; format: cell-based, Coagulase-Negative Staphylococcus; details: for Cumulative % Inhibition at MIC: N=461
[5] = tested on: E. faecium VNS; format: cell-based; details: for Cumulative % Inhibition at MIC: N=614
[6] = tested on: E. coli ESBL+; format: cell-based, Escherichia coli; details: for Cumulative % Inhibition at MIC: N=795
[7] = tested on: K. pneumoniae ESBL−; format: cell-based, Klebsiella pneumoniae; details: for Cumulative % Inhibition at MIC: N=1381
[8] = tested on: MR CoNS; format: cell-based, Coagulase-Negative Staphylococcus; details: for Cumulative % Inhibition at MIC: N=1349
[9] = tested on: MRSA; format: cell-based

CN(C)c1cc(CNCC(C)(C)C)c(O)c2c1C[C@H]1C[C@H]3[C@H](N(C)C)C(O)=C(C(N)=O)C(=O)[C@@]3(O)C(O)=C1C2=O [Compound 1, 9-[(2,2-dimethyl-propylamino)-methyl]-minocycline]
MIC90 ([1]; Asia/Pac, N=106): 0.25 µg/mL (≈ 0.449 µM) | MIC90 ([1]; Europe, N=303): 0.12 µg/mL (≈ 0.216 µM) | MIC90 ([1]; L. Amer, N=51): 0.12 µg/mL (≈ 0.216 µM) | Cumulative % Inhibition at MIC ([1]; MIC 1 μg/ml): 100% | Cumulative % Inhibition at MIC ([1]; MIC ≤0.5 μg/ml, listed as head image P00003): 99.8% | MIC90 ([1]; N America, N=115): 0.25 µg/mL (≈ 0.449 µM) | MIC90 ([2]; Asia/Pac, N=641): 0.5 µg/mL (≈ 0.898 µM) | MIC90 ([2]; Europe, N=2109): 0.25 µg/mL (≈ 0.449 µM) | MIC90 ([2]; L. Amer, N=590): 0.25 µg/mL (≈ 0.449 µM) | Cumulative % Inhibition at MIC ([2]; MIC 1 μg/ml): 99.9% | Cumulative % Inhibition at MIC ([2]; MIC 2 μg/ml): 100% | Cumulative % Inhibition at MIC ([2]; MIC ≤0.5 μg/ml): 99.7% | MIC90 ([2]; N America, N=2373): 0.25 µg/mL (≈ 0.449 µM) | MIC90 ([3]; Asia/Pac, N=17): 2 µg/mL (≈ 3.59 µM) | MIC90 ([3]; Europe, N=158): 2 µg/mL (≈ 3.59 µM) | MIC90 ([3]; L. Amer, N=25): 4 µg/mL (≈ 7.19 µM) | Cumulative % Inhibition at MIC ([3]; MIC 1 μg/ml): 57.6% | Cumulative % Inhibition at MIC ([3]; MIC 2 μg/ml): 89.4% | Cumulative % Inhibition at MIC ([3]; MIC 4 μg/ml): 95.2% | Cumulative % Inhibition at MIC ([3]; MIC 8 μg/ml): 98.7% | Cumulative % Inhibition at MIC ([3]; MIC 16 μg/ml): 99.7% | Cumulative % Inhibition at MIC ([3]; MIC ≤0.5 μg/ml, listed as head image P00013): 2.1% | Cumulative % Inhibition at MIC ([3]; MIC ≥32 μg/ml): 100% | MIC90 ([3]; N America, N=177): 4 µg/mL (≈ 7.19 µM) | MIC90 ([4]; Asia/Pac, N=18): 0.25 µg/mL (≈ 0.449 µM) | MIC90 ([4]; Europe, N=185): 1 µg/mL (≈ 1.8 µM) | MIC90 ([4]; L. Amer, N=67): 0.5 µg/mL (≈ 0.898 µM) | Cumulative % Inhibition at MIC ([4]; MIC 1 μg/ml): 99.8% | Cumulative % Inhibition at MIC ([4]; MIC 2 μg/ml): 100% | Cumulative % Inhibition at MIC ([4]; MIC ≤0.5 μg/ml): 92.4% | MIC90 ([4]; N America, N=191): 0.5 µg/mL (≈ 0.898 µM) | MIC90 ([5]; Asia/Pac, N=24): 0.25 µg/mL (≈ 0.449 µM) | MIC90 ([5]; Europe, N=71): 0.25 µg/mL (≈ 0.449 µM) | MIC90 ([5]; L. Amer, N=41): 0.12 µg/mL (≈ 0.216 µM) | Cumulative % Inhibition at MIC ([5]; MIC 1 μg/ml): 100% | Cumulative % Inhibition at MIC ([5]; MIC ≤0.5 μg/ml, listed as head image P00004): 98.4% | MIC90 ([5]; N America, N=478): 0.25 µg/mL (≈ 0.449 µM) | MIC90 ([6]; Asia/Pac, N=219): 2 µg/mL (≈ 3.59 µM) | MIC90 ([6]; ESBL-producing E. coli): 4 µg/mL (≈ 7.19 µM) | MIC90 ([6]; Escherichia coli, ESBL-producing E. coli, read-out: MIC90): < 4 µg/mL | MIC90 ([6]; Europe, N=274): 4 µg/mL (≈ 7.19 µM) | MIC90 ([6]; L. Amer, N=168): 4 µg/mL (≈ 7.19 µM) | Cumulative % Inhibition at MIC ([6]; MIC 1 μg/ml): 63.0% | Cumulative % Inhibition at MIC ([6]; MIC 2 μg/ml): 87.5% | Cumulative % Inhibition at MIC ([6]; MIC 4 μg/ml): 97.7% | Cumulative % Inhibition at MIC ([6]; MIC 8 μg/ml): 99.5% | Cumulative % Inhibition at MIC ([6]; MIC 16 μg/ml): 99.9% | Cumulative % Inhibition at MIC ([6]; MIC ≤0.5 μg/ml, listed as head image P00006): 30.4% | Cumulative % Inhibition at MIC ([6]; MIC ≥32 μg/ml): 100% | MIC90 ([6]; N America, N=134): 4 µg/mL (≈ 7.19 µM) | MIC90 ([7]; Asia/Pac, N=189): 4 µg/mL (≈ 7.19 µM) | MIC90 ([7]; Europe, N=361): 4 µg/mL (≈ 7.19 µM) | MIC90 ([7]; L. Amer, N=160): 4 µg/mL (≈ 7.19 µM) | Cumulative % Inhibition at MIC ([7]; MIC 1 μg/ml): 29.1% | Cumulative % Inhibition at MIC ([7]; MIC 2 μg/ml): 79.9% | Cumulative % Inhibition at MIC ([7]; MIC 4 μg/ml): 92.1% | Cumulative % Inhibition at MIC ([7]; MIC 8 μg/ml): 95.6% | Cumulative % Inhibition at MIC ([7]; MIC 16 μg/ml): 98.3% | Cumulative % Inhibition at MIC ([7]; MIC ≤0.5 μg/ml, listed as head image P00009): 2.4% | Cumulative % Inhibition at MIC ([7]; MIC ≥32 μg/ml): 100% | MIC90 ([7]; N America, N=671): 4 µg/mL (≈ 7.19 µM) | MIC90 ([8]; Asia/Pac, N=77): 1 µg/mL (≈ 1.8 µM) | MIC90 ([8]; Europe, N=510): 1 µg/mL (≈ 1.8 µM) | MIC90 ([8]; L. Amer, N=301): 1 µg/mL (≈ 1.8 µM) | Cumulative % Inhibition at MIC ([8]; MIC 1 μg/ml): 99.1% | Cumulative % Inhibition at MIC ([8]; MIC 2 μg/ml): 100% | Cumulative % Inhibition at MIC ([8]; MIC ≤0.5 μg/ml): 85.9% | MIC90 ([8]; N America, N=461): 1 µg/mL (≈ 1.8 µM) | MIC90 ([9]; Asia/Pac, N=428): 1 µg/mL (≈ 1.8 µM) | MIC90 ([9]; Europe, N=750): 0.25 µg/mL (≈ 0.449 µM) | MIC90 ([9]; L. Amer, N=506): 0.25 µg/mL (≈ 0.449 µM)
